Entries after “also recorded” stand apart in the source; their conditions may differ.
Columns and labels:
Assay type in all cases: cell-based, human
[1] = tested on: Hox genes in malignant cell lines; test: RT-PCR of HOX gene expression in malignant cell lines; conditions: 20 μg/ml, at least two different Hox genes in each case
Protocol: (§1) A number of cell lines representing different malignancies were grown in culture for seven days, and HXP peptide or the control peptide CXP were added to a final concentration of 20 μg/ml on day 3. The bars represent the fold increase of each cell line over the seven days; the empty, dashed bars indicate the CXP peptide treated cells, whilst the solid bars indicate the addition of HXP peptide. Error bars represent the standard error the mean, and n is the number of experiments performed. The cell lines used were: AML—KG1a; Bladder—HT; Breast—SKBR3; Cervical—HeLa; Colon—Colo41; Gastric—MKN-45; Large cell lung cancer—MES; Melanoma—DX3; Ovarian—1847; Pancreatic—Panc-Tu1; Prostate—LNCAP; Renal—HT1376; Small cell lung cancer—NCI-h510A. The change in the expression of the HOX genes expressed by each cell line was assessed by RT-PCR on RNA extracted from the cells at the end of seven days. ‘HOX gene inactivated’ means that the level of expression of each of the listed HOX genes was at least five fold lower in the HXP peptide treated cells compared to the control. *Analysis not yet complete.
The sequences of RT-PCR primers used are set out below. For each primer pair, the amplified region is given in relation to the known gene sequence as available through GenBank (http://www.ncbi.nlm.nih.gov/entrez).

malignant cell lines = test: Proliferation of malignant cell lines over seven days in culture; design: effect of increased dose on proliferation of malignant cell lines: dose or concentration left out as unconfirmed
Protocol: as §1
A number of cell lines representing different malignancies were grown in culture for seven days, and HXP peptide or the control peptide CXP were added to a final concentration of 200 μg/ml on day 3. The bars represent the fold increase of each cell line over the seven days; the empty, dashed bars indicate the CXP peptide treated cells, whilst the solid bars indicate the addition of HXP peptide. Error bars represent the standard error the mean, and n is the number of experiments performed. The cell lines used were: Bladder—HT; Cervical—HeLa; Melenoma—DX3; Pancreatic—Panc-Tu1.
Solid tumour cell lines (Cancer Research UK) were seeded at 4×10^4 cells/ml, in a liquid culture system made of appropriate medium (see table, Sigma-Aldrich, UK) supplemented with 10% FCS (Sigma Aldrich) and penstrep (1% Sigma). All cell lines were grown with HXP peptide (as in Example 3, 20 μg/ml or 200 μg/ml) or control peptide CXP (20 μg/ml or 200 μg/ml).
KG1a, KG1, HL60 and U937 cell lines (EACC, UK) were seeded at 5×10^4 cells/ml, in a liquid culture system made of RPMI-1640 medium (Life Technologies, UK) supplemented with 10% FCS (Sigma Aldrich) and gentamicin (50 μg/ml Life Technologies) in triplicates. All cell lines were grown with HXP peptide peptide (20 μg/ml) or control peptide (20 μg/ml).
Cell lines were cultured for various time points at 37° C., 5% CO2 in humidified atmosphere and enumerated at various time points.

AC133+ cells = test: Short-term ex-vivo AC133+ cell expansion culture with HXP peptide, trypan blue cell count
Protocol: Umbilical Cord Blood (UCB) specimens were collected from full-term deliveries scheduled for elective caesarian sections following hospital ethical regulations.
Samples were diluted 1 in 4 in PBS supplemented with a citrate-based anti-coagulant (0.6% ACD-A, Baxter, France) and Bovine Serum Albumin (0.5% fraction V, Sigma Aldrich, UK) at pH=7.4 and referenced as “ACD-A buffer”. Diluted UCB was carefully overlaid in a 1:4 ratio onto a research grade Ficoll-Paque solution (d:1.077 g/cm^3, Pharmacia Biotech, Sweden) prior to Centrifugation (400 g, 30 minutes, 22° C.). The mononuclear cells (MNC) layer was extracted, washed twice in ACD-A Buffer, pelleted (400 g, 10 minutes) before resuspending in ACD-A buffer and cell aliquots taken for cell viability/enumeration using trypan blue (Sigma Aldrich).
AC133+ cells were obtained from MNC after immunomagnetic separation using the AC133 mini-MACS selection kit (Miltenyi Biotec, Germany): labelling volume 500 μl/10^8 cells in ACD-A buffer containing Fc Receptor-blocking reagent (100 μl, 5 min incubation, 4° C.) before adding colloidal super-paramagnetic MACS MicroBeads conjugated to monoclonal mouse anti-human AC133/1 antibody (100 μl IgG1 isotype, 25 min incubation, 4° C.). Cells were then washed (5 ml ACD-A buffer, 400 g, 10 min, 4° C.) before resuspended cells in 500 μl ACD-A buffer were applied to a chilled MACS positive selection column (MS+/RS+) on a magnet. The column was rinsed with cool ACD-A buffer (4×500 μl) and the AC133− cell population retained at 4° C. After magnet removal AC133+ cells were eluted with 1 ml of cold ACD-A buffer. The AC133+ cell fraction was reapplied to a new column, prior to cell enumeration and viability assays.
AC133+ cells were seeded in duplicate in liquid culture system at 2-4×10^4 cells/ml. […] Cultured cells were then counted at various time points using trypan blue exclusion method described above.

[2] = 20 μg/ml added on day 3, seven days culture

## WYPWMKKHHRQIKIWFQNRRMKWKK [HXP peptide]
[1]
  Hox gene expression in each cancer cell line with reduced proliferation: transcriptionaly silenced
Malignant cell lines; 20 μg/ml
  fold increase in cell number after 7 days in culture, in some cases: less than 1
Malignant cell lines; [2]
  proliferation of cells derived from colorectal, pancreatic, small cell lung, bladder, prostate, cervical, ovarian and gastric cancers: sufficient to block the proliferation
  proliferation of cells derived from renal, breast and non-small cell lung cancer: no significant affect
Malignant cell lines; ten fold increase in dose
  effect of increased dose on proliferation of malignant cell lines: complete ablation of some malignancies
AC133+ cells; 20 μg/ml, TPOFLK supplemented liquid culture
  cell growth of AC133+ cells: slowing their growth; also recorded: slowed
AC133+ cells; withdrawal at 7 days
  AC133+ cell proliferation after withdrawal of HXP peptide: started to proliferate again

Reference: patent US7728105B2, “Peptides impairing PBX dependent gene regulation” (St. George's Hospital Medical School, priority 2002, dated 2010)
